# Patent US9493401B2, “Glutamate derivatives for topical use as immunomodulatory active ingredient” (PIERRE FABRE DERMO-COSMETIQUE, priority 2012, dated 2016)
# Like-named read-outs stand apart in the source and are kept apart here.
# How the values were obtained:
# human CD4+ lymphocytes = test: Secretion of cytokines by human CD4+ lymphocytes stimulated with SEB (immuno-regulatory activity); type: cell-based; details: Lymphocyte, SEB 300 ng/ml, 24 h
# HaCaT keratinocytes = test: Secretion of IL8 by HaCaT keratinocytes stimulated with TNFα (anti-inflammatory activity); type: cell-based, human; details: TNFα 10 ng/ml, 24 h; FIG. 4; in words
# Method: The dosage of interleukin 8 is carried out from a sample taken from the supernatant according to the following method: • IL8 is evaluated by ELISA, Duoset IL8 (Ref. DY208E, R&D Systems).
# NHEK keratinocytes = test: Gene expression of inflammatory markers of atopic dermatitis in stimulated NHEK keratinocytes (PCR-Array); type: cell-based, human; details: 24 h, vs stimulated control
# Method: The primary keratinocytes (NHEK, normal human epidermal keratinocytes) distributed in 24-well plates are preincubated for 1 hour with the active ingredients and then stimulated for 24 hours with a cocktail of 4 agonists giving the possibility of creating in vitro the physio-pathological environment of atopic dermatitis: 100 ng/ml IL4+100 ng/ml IL13+1 μg/ml Poly I:C+5 μg/ml Pam3CSK4: this model gives the possibility of inducing the inflammation mediated by the overexpressed Th2 cytokines in DA (IL4, IL13) and by the bacterial components (mimicked by Pam3CSK4, TLR-2 ligand) and viral components (mimicked by Poly I:C, TLR-3 ligand) of DA. Analysis of the gene expression of the markers of DA is conducted in a PCR-Array with 48 genes and repeated on 3 different donors of NHEK.
# For the whole of the markers, the RQ (Relative Quantity) of less than 0.5, at 5 h or 24 h, indicates significant inhibition: • inhibition of the TSLP marker involved in the lymphocyte Th2 polarization and specific of AD; • inhibition of the inflammatory cytokines IL1A, IL8, CSF2, IFNB1, VEGF; • inhibition of the chemokines CCL, CXCL, involved in the recruitment, cutaneous infiltration, and activation of the inflammatory cells (leucocytes, lymphocytes, Th1 and Th2 lymphocytes, monocytes).
# [1] = read-out: inhibition of the production of IL-2
# [2] = read-out: inhibition of the production of IL-4
# [3] = read-out: inhibition of the production of IL-17
smiles,measurement,setting,value
"CCCCCCCCCOC(=O)CC[C@H](N)C(=O)O [Example 3, 5-(n-nonyl)-L-glutamate or 2-amino-5-(nonyloxy)-5-oxopentanoic acid]",inhibition at 300 µM,human CD4+ lymphocytes; [1],63%
same,inhibition at 300 µM,human CD4+ lymphocytes; [2],70%
same,inhibition at 300 µM,human CD4+ lymphocytes; [3],54%
same,anti-inflammatory activity towards the production of IL-8,HaCaT keratinocytes,anti-inflammatory activity
"CCCCCCCCCCCCOC(=O)CC[C@H](N)C(=O)O [Example 4, 5-(n-dodecyl)-L-glutamate or 2-amino-5-(dodecyloxy)-5-oxopentanoic acid]",melting point,,189.9 °C
"CCCCCCCCCCCCCCOC(=O)CC[C@H](N)C(=O)O [Example 5, 5-(n-tetradecyl)-L-glutamate or 2-amino-5-oxo-5(tetradecyl)pentanoic acid]",melting point,,184.8 °C
"CCCCCCCCCCCCCCCCOC(=O)CC[C@H](N)C(=O)O [Example 6, 5-(n-hexadecyl)-L-glutamate or 2-amino-5-(hexadecyloxy)-5-oxopentanoic acid]",melting point,,179.3 °C
"CCCCCCCCCCCCCCCCCCOC(=O)CC[C@H](N)C(=O)O [Example 7, 5-(n-octadecyl)-L-glutamate or 2-amino-5-(octadecyloxy)-5-oxopentanoic acid]",melting point,,180.5 °C
"CC(C)CCCC(C)CCOC(=O)CC[C@H](N)C(=O)O (stereo partly drawn) [Example 8, 5-(3,7-dimethyloctyl)-L-glutamate or 2-amino-5(3,7-dimethyloctyloxy)-5-oxo-pentanoic acid]",inhibition at 300 µM,human CD4+ lymphocytes; [1],29%
same,melting point,,150.8 °C
"CCCCC(CC)COC(=O)CC[C@H](N)C(=O)O (stereo partly drawn) [Example 12, 5-(2-ethylhexyl)-L-glutamate or 2-amino-5(2-ethylhexyloxy)-5-oxopentanoic acid]",inhibition at 300 µM,human CD4+ lymphocytes; read-out: inhibition of the production of IFNγ,77%
same,inhibition at 300 µM,human CD4+ lymphocytes; read-out: inhibition of the production of IL1β,80%
same,inhibition at 300 µM,human CD4+ lymphocytes; read-out: inhibition of the production of IL5,77%
same,inhibition at 300 µM,human CD4+ lymphocytes; read-out: inhibition of the production of IL6,44%
same,inhibition at 300 µM,human CD4+ lymphocytes; read-out: inhibition of the production of IL10,87%
same,inhibition at 300 µM,human CD4+ lymphocytes; read-out: inhibition of the production of IL13,84%
same,inhibition at 300 µM,human CD4+ lymphocytes; [1],43%
same,inhibition at 300 µM,human CD4+ lymphocytes; [2],69%
same,inhibition at 300 µM,human CD4+ lymphocytes; [3],86%
same,inhibition at 300 µM,human CD4+ lymphocytes; read-out: inhibition of the production of TNFα,18%
same,CCL2 (MCP-1) gene expression,NHEK keratinocytes; 100 μM,0.48 RQ
same,CCL3 (MIP-1α) gene expression,NHEK keratinocytes; 100 μM,0.51 RQ
same,CCL4 (MIP-1β) gene expression,NHEK keratinocytes; 100 μM,0.14 RQ
same,CCL5 (RANTES) gene expression,NHEK keratinocytes; 100 μM,0.42 RQ
same,CCL20 (MIP-3α) gene expression,NHEK keratinocytes; 100 μM,0.13 RQ
same,CSF2 (GMCSF) gene expression,NHEK keratinocytes; 100 μM,1.55 RQ
same,CXCL1 (GRO-α) gene expression,NHEK keratinocytes; 100 μM,0.33 RQ
same,CXCL2 (MIP-2α) gene expression,NHEK keratinocytes; 100 μM,0.06 RQ
same,CXCL9 (Gamma-interferon-induced monokine) gene expression,NHEK keratinocytes; 100 μM,0.20 RQ
same,CXCL10 (IP-10) gene expression,NHEK keratinocytes; 100 μM,0.18 RQ
same,CXCL11 (I-TAC) gene expression,NHEK keratinocytes; 100 μM,0.14 RQ
same,IFNB1 (Interferon beta 1) gene expression,NHEK keratinocytes; 100 μM,0.19 RQ
same,"IL1A (Interleukin 1, alpha) gene expression",NHEK keratinocytes; 100 μM,0.53 RQ
same,IL8 (Interleukin 8) gene expression,NHEK keratinocytes; 100 μM,0.29 RQ
same,TSLP (Thymic stromal lymphopoietin) gene expression,NHEK keratinocytes; 100 μM,0.20 RQ
same,VEGFC (Vascular endothelial growth factor C) gene expression,NHEK keratinocytes; 100 μM,0.20 RQ
same,CCL3 (MIP-1α) gene expression,NHEK keratinocytes; 300 μM,0.06 RQ
same,CCL4 (MIP-1β) gene expression,NHEK keratinocytes; 300 μM,0.02 RQ
same,CCL5 (RANTES) gene expression,NHEK keratinocytes; 300 μM,0.20 RQ
same,CCL20 (MIP-3α) gene expression,NHEK keratinocytes; 300 μM,0.13 RQ
same,CSF2 (GMCSF) gene expression,NHEK keratinocytes; 300 μM,0.33 RQ
same,CXCL1 (GRO-α) gene expression,NHEK keratinocytes; 300 μM,0.36 RQ
same,CXCL2 (MIP-2α) gene expression,NHEK keratinocytes; 300 μM,0.32 RQ
same,CXCL9 (Gamma-interferon-induced monokine) gene expression,NHEK keratinocytes; 300 μM,0.29 RQ
same,CXCL10 (IP-10) gene expression,NHEK keratinocytes; 300 μM,0.06 RQ
same,CXCL11 (I-TAC) gene expression,NHEK keratinocytes; 300 μM,0.15 RQ
same,IFNB1 (Interferon beta 1) gene expression,NHEK keratinocytes; 300 μM,0.26 RQ
same,"IL1A (Interleukin 1, alpha) gene expression",NHEK keratinocytes; 300 μM,0.53 RQ
same,IL8 (Interleukin 8) gene expression,NHEK keratinocytes; 300 μM,0.18 RQ
same,TSLP (Thymic stromal lymphopoietin) gene expression,NHEK keratinocytes; 300 μM,0.54 RQ
same,VEGFC (Vascular endothelial growth factor C) gene expression,NHEK keratinocytes; 300 μM,0.50 RQ
same,melting point,,157.9 °C
"N[C@@H](CCC(=O)O)C(=O)O [glutamic acid, reference compound]",anti-inflammatory activity towards the production of IL-8,HaCaT keratinocytes,not again found
